The record followed here is patent US6534524B1, “Indazole compounds and pharmaceutical compositions for inhibiting protein kinases, and methods for their use” (Agouron Pharmaceuticals, Inc., priority 1999, dated 2003).

The target of the first test is T1, human CHK1 (FL-CHK1) (Homo sapiens, UniProt O14757).
T1 construct: C-terminally His-tagged full-length human CHK1 (FL-CHK1); made in house; host or cells: baculovirus/insect cell system
T1 sequence (O14757 1-476): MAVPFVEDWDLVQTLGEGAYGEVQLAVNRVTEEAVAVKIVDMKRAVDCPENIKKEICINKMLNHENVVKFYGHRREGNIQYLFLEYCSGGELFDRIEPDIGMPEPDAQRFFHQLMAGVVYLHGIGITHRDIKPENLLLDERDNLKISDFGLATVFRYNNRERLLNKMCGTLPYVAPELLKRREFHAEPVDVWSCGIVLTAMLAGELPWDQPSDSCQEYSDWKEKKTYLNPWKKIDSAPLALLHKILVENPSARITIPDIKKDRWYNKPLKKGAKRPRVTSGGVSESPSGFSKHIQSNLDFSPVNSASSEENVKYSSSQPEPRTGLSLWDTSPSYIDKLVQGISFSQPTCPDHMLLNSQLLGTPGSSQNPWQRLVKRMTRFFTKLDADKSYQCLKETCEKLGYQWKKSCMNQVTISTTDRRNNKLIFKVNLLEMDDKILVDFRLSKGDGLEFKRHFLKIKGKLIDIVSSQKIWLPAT
As to the kind of experiment: CHK1 assay (coupled spectrophotometric, Syntide-2). The class given is biochemical. To be noted: Table 3; read-out: CHK-1 Ki. The text has this: CHK1 Construct for Assay: C-terminally His-tagged full-length human CHK1 (FL-CHK1) was expressed using the baculovirus/insect cell system. […] The protein was purified by conventional chromatographic techniques.
The production of ADP from ATP that accompanies phosphoryl transfer to the synthetic substrate peptide Syntide-2 ([…]) was coupled to oxidation of NADH using phosphoenolpyruvate (PEP) through the actions of pyruvate kinase (PK) and lactic dehydrogenase (LDH). The oxidation of NADH was monitored by following the decrease of absorbance at 340 nm (ε340=6.22 cm^−1 mM^−1) using a HP8452 spectrophotometer. […] Assays were initiated with 10 nM of FL-CHK1. Ki values were determined by measuring initial enzyme activity in the presence of varying concentrations of test compounds. The data were analyzed using Enzyme Kinetic and Kaleidagraph software.
A word on the Ki: it is the dissociation constant of the complex between target and ligand, obtained from inhibition or displacement. Consider `C(=C\c1n[nH]c2cc(-c3ccncc3)ccc12)/c1ccc[nH]1` [Example 29(t), 6-Pyrid-4-yl-3-E-[2-(1H-pyrrol-2-yl)ethenyl]-1H-indazole], for which the Ki stood at 72 nM.
Same read-out and setting: to `O=C(NC1CC1)c1ccc2c(-c3nc4ccccc4[nH]3)n[nH]c2c1` [Example 53(b), 3-(1H-Benzoimidazol-2-yl)-N-cyclopropyl-1H-indazole-6-carboxamide] belongs 1400 nM; to `O=C(NOCc1ccccc1)c1ccc2c(-c3nc4ccccc4[nH]3)n[nH]c2c1` [Example 53(f), 3-(1H-Benzoimidazol-2-yl)-N-benzyloxy-1H-indazole-6-carboxamide], 7300 nM.
Same read-out and setting: the figure for `O=C(Nc1ccc(O)c(F)c1)c1ccc2c(-c3nc4ccccc4[nH]3)n[nH]c2c1` [Example 53(g), 3-(1H-Benzoimidazol-2-yl)-N-(3-fluoro-4-hydroxyphenyl)-1H-indazole-6-carboxamide] is 1500 nM; for `O=C(Nc1ccc(O)cc1)c1ccc2c(-c3nc4cc(Cl)c(Cl)cc4[nH]3)n[nH]c2c1` [Example 54(b), 3-(5,6-Dichloro-1H-benzoimidazol-2-yl)-N-(4-hydroxyphenyl)-1H-indazole-6-carboxamide] it is 3100 nM.
On the same count and under the same terms, the figure for `O=C(Nc1ccc(O)cc1)c1ccc2c(-c3nc4cc5ccccc5cc4[nH]3)n[nH]c2c1` [Example 54(d), 3-[1H-Naphtho(2,3-d)imidazol-2-yl]-N-(4-hydroxyphenyl)-1H-indazole-6-carboxamide] is 680 nM; for `Cc1ccc2[nH]c(-c3n[nH]c4cc(C(=O)Nc5ccc(O)cc5)ccc34)nc2c1C` [Example 54(f), 3-(4,5-Dimethyl-1H-benzoimidazol-2-yl)-N-(4-hydroxyphenyl)-1H-indazole-6-carboxamide] it is 2900 nM.
For the compound `O=C(Nc1ccc(O)cc1)c1ccc2c(-c3nc4cc(C(F)(F)F)ccc4[nH]3)n[nH]c2c1` [Example 54(h), 3-(5-Trifluoromethyl-1H-benzoimidazol-2-yl)-N-(4-hydroxyphenyl)-1H-indazole-6-carboxamide], the Ki was determined as 1000 nM.
On the same count and under the same terms, the figure for `O=C(Nc1ccc(O)cc1)c1ccc2c(-c3nc4cc(Cl)ccc4[nH]3)n[nH]c2c1` [Example 54(l), 3-(5-Chloro-1H-benzoimidazol-2-yl)-N-(4-hydroxyphenyl)-1H-indazole-6-carboxamide] is 990 nM.
As to `c1ccc2[nH]c(-c3n[nH]c4cc(-c5ccncc5)ccc34)nc2c1` [Example 55, 3-1H-Benzoimidazol-2-yl-6-pyridin-4-yl-1H-indazole], the inhibition constant Ki is 10000 nM.

The same test, now with this note: Table 4; compound at 20 μM.
Regarding `O=C(NC1CCS(=O)(=O)C1)c1ccc2c(-c3nc4ccccc4[nH]3)n[nH]c2c1` (stereo not drawn) [drawing 1226], the “CHK-1 @ 20 μM” value was 24.2.
Still for that read-out and setting: the figure for `O=C(Nc1ccc2[nH]c(=O)[nH]c2c1)c1ccc2c(-c3nc4ccccc4[nH]3)n[nH]c2c1` [drawing 1232] is 32.3.
On the same count and under the same terms, the figure for `O=C(Nc1cnccn1)c1ccc2c(-c3nc4ccccc4[nH]3)n[nH]c2c1` [drawing 1245] is 36.3; for `O=C(Nc1ncnc2[nH]cnc12)c1ccc2c(-c3nc4ccccc4[nH]3)n[nH]c2c1` [drawing 1250] it is 38.6; for `COc1ccc(NC(=O)c2ccc3c(-c4nc5ccccc5[nH]4)n[nH]c3c2)cc1O` [drawing 1257] it is 32.3.
For `COC(=O)c1ccc(NC(=O)c2ccc3c(-c4nc5ccccc5[nH]4)n[nH]c3c2)o1` [drawing 1258], the “CHK-1 @ 20 μM” value turned out to be 42.9.
As for `C=CCC(NC(=O)c1ccc2c(-c3nc4ccccc4[nH]3)n[nH]c2c1)c1ccccn1` (stereo not drawn) [drawing 1259], the “CHK-1 @ 20 μM” value is given as 24.1.
The same measure, in the same setting: the figure for `COC(=O)c1cc(NC(=O)c2ccc3c(-c4nc5ccccc5[nH]4)n[nH]c3c2)ccc1O` [drawing 1260] is 31.6.
